# Experimental data from ChEMBL document CHEMBL5370622 (J Nat Prod, 2023).
# Experiments:
# [1] = Inhibition of human full length […] gene fusion of J-PKAc alpha chimeric protein expressed in Escherichia coli BL21 (DE3) cells using CREB KRREILSRRPSYR-biotinylated peptide as substrate incubated for 45 mins in presence of ATP by ELISA
# [2] = target: Dual specificity tyrosine-phosphorylation-regulated kinase 1A (Homo sapiens) (UniProt Q13627); assay: Inhibition of human DYRK1A at 50 nM in presence of ATP by radiometric hotspot kinase assay relative to control
# [3] = target: Dual specificity tyrosine-phosphorylation-regulated kinase 1B (Homo sapiens) (UniProt Q9Y463); assay: Inhibition of human DYRK1B at 50 nM in presence of ATP by radiometric hotspot kinase assay relative to control
# [4] = target: T1, Dual specificity tyrosine-phosphorylation-regulated kinase 2 (Homo sapiens) (UniProt Q92630); assay: Inhibition of human DYRK2 at 50 nM in presence of ATP by radiometric hotspot kinase assay relative to control
# T1 sequence (whole entry): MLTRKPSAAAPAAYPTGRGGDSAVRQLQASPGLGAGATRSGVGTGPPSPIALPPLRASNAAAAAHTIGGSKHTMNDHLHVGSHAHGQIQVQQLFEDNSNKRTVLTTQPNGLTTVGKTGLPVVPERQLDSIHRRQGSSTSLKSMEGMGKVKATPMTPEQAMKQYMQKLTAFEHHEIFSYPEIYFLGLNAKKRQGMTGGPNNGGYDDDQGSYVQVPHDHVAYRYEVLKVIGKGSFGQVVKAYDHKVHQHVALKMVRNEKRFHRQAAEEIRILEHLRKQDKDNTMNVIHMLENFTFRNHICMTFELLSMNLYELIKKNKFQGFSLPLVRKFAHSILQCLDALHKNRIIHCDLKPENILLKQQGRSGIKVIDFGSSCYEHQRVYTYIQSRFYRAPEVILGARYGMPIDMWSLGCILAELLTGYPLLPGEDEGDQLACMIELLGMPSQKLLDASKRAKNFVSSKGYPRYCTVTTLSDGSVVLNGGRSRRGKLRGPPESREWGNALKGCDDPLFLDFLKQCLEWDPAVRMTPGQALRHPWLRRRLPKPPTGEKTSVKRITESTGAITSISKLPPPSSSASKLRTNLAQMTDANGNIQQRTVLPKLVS
# [5] = target: T2, Dual specificity tyrosine-phosphorylation-regulated kinase 3 (Homo sapiens) (UniProt O43781); assay: Inhibition of human DYRK3 at 50 nM in presence of ATP by radiometric hotspot kinase assay relative to control
# T2 sequence (whole entry): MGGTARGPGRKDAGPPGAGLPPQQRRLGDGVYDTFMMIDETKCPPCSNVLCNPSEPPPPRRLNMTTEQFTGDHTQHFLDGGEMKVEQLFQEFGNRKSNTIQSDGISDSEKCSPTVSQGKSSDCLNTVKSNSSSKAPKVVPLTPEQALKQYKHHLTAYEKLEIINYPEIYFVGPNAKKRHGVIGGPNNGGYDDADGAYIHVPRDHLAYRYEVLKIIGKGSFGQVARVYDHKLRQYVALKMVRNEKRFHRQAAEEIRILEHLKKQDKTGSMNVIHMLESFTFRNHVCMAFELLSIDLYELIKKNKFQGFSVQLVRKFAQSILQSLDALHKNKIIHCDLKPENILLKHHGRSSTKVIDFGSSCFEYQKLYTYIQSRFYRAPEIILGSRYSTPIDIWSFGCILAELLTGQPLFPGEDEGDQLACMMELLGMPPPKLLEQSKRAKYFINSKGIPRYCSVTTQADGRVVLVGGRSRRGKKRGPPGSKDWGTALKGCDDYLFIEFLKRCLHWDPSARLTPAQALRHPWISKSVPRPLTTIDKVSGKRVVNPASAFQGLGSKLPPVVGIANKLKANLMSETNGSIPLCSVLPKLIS
# [6] = target: cAMP-dependent protein kinase catalytic subunit alpha (Homo sapiens, UniProt P17612); assay: Inhibition of wild type PKAc alpha (unknown origin) using CREB KRREILSRRPSYR-biotinylated peptide as substrate incubated for 45 mins in presence of ATP by ELISA
# [7] = Binding affinity to human full length […] gene fusion of J-PKAc alpha chimeric protein expressed in Escherichia coli BL21 (DE3) cells assessed as dissociation constant by MST assay
# Chain of Dual specificity tyrosine-phosphorylation-regulated kinase 1B (Homo sapiens) (Q9Y463 whole entry, looked up): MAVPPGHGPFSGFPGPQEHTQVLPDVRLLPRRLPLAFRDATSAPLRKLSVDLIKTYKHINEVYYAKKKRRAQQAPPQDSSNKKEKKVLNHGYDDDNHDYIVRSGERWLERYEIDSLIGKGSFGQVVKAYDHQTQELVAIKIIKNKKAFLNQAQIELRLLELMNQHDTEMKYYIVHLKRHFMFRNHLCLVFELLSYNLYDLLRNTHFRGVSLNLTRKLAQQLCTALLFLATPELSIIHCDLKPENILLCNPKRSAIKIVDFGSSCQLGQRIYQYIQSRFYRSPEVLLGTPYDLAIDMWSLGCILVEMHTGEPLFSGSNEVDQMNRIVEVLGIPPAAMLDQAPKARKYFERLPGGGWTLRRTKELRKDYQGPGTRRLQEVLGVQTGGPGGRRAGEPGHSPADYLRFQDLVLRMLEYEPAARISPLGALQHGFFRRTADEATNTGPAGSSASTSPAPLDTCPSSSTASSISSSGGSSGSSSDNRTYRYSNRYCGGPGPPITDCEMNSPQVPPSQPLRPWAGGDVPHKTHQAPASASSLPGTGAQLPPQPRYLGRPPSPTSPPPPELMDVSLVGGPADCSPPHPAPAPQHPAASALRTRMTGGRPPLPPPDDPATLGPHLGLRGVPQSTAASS
SMILES,IC50 [1] [µM],inhibition [2] [%],inhibition [3] [%],inhibition [4] [%],inhibition [5] [%],IC50 [6] [µM],Kd [7] [µM]
Cn1cncc1C1=CN(c2ncnc3[nH]cnc23)CCS1(=O)=O,> 200,–,–,–,–,–,–
Cn1cncc1C1=CN(c2ncnc3[nH]cnc23)CCS1,–,23,23,21,16,–,–
Cn1cncc1C1=CN(c2ncnc3[nH]cnc23)CC[S+]1[O-] (configuration not stated),> 200,–,–,–,–,–,–
Cn1c(Br)nc(Br)c1C1=CN(c2ncnc3[nH]cnc23)CCS1,> 200,–,–,–,–,–,–

# Second part, led by results:
IC50 [1] [µM],inhibition [2] [%],inhibition [3] [%],inhibition [4] [%],inhibition [5] [%],IC50 [6] [µM],SMILES,Kd [7] [µM]
79,–,–,–,–,90,Cn1cncc1C1=CN(c2ncnc3[nH]c(=O)[nH]c23)CCS1,37
1.04,61,49,56,49,1.1,Cn1cnc(Br)c1C1=CN(c2ncnc3[nH]cnc23)CCS1,3
